Measured values: US20190040584A1, “Use of DIPA-Esterquat Debonder For Tissue And Fluff Pulp Manufacturing” (Evonik Degussa GmbH, priority 2016, published 2019)

How the values were obtained:
Daphnia magna = conditions: in vivo
Fish = Fish aqua tox (OECD 203); format: in vivo

dialkyldimethyl ammonium chloride [Adogen 442]
Aquatoxicity, invertebrates, Daphnia magna; (202) 48 h; EC50 (Daphnia magna): 0.19 µg/mL | Fish; aqua tox (203); 96 h; LC50 (Fish): 10.1 µg/mL
